Laboratory results: patent publication US9676789B2, “Aminated derivative of homoharringtonine, preparation method therefor, and application thereof” (HANGZHOU BENSHENG PHARMACEUTICAL CO., LTD., priority 2011, dated 2017)
In brackets after ≈: the same amount, converted by molar mass.

Experiments:
[1] = test system: Jurkat (acute lymphoblastic leukemia, ALL); assay: MTT leukemia cell growth inhibition, 72 h; assay type: cell-based, human; details: Homo sapiens; for IC50: read-out: IC50; for IC90: read-out: IC90
Text: (§1) Leukemia cell lines: K562/adr (drug-resistant, chronic myeloid leukemia, CML), NB4 (acute promyelocytic leukemia, AML), Kasumi-1 (acute myeloid leukemia M2 type, AML-M2), Jurkat (acute lymphoblastic leukemia, ALL), all of which are donated by Cancer Research Institute of Zhejiang University, China; and H9 (acute lymphoblastic leukemia, ALL), which is purchased from China Center for Type Culture Collection.
(§2) Obtaining 6000 well-growing leukemia cells and inoculating them into wells of a 96-well cell culture plate. The culture medium is the 1640 cell culture medium containing 10% fetal bovine serum. After adding the homoharringtonine derivatives of different concentrations and mixing uniformly, placing the plate in a carbon dioxide cell incubator (5% CO2) at 37° C. and incubating for 72 hours. Then the viable cell concentration is determined by the MTT method. In this experiment, the cell viability in control group (not treated with any compound) is set as 100%.

[2] = test system: H9 (acute lymphoblastic leukemia, ALL); assay: MTT leukemia cell growth inhibition, 72 h; assay type: cell-based, human; details: Homo sapiens, H9, 72 h; for IC50: read-out: IC50; for IC90: read-out: IC90
Text: as §1, §2

[3] = test system: K562/adr (drug-resistant, chronic myeloid leukemia, CML); assay: MTT leukemia cell growth inhibition, 72 h; assay type: cell-based, human; details: Homo sapiens, K562/Adr; for IC50: read-out: IC50; for IC90: read-out: IC90
Text: as §1, §2

[4] = test system: Kasumi-1 (acute myeloid leukemia M2 type, AML-M2); assay: MTT leukemia cell growth inhibition, 72 h; assay type: cell-based, human; details: Homo sapiens, Kasumi-1, 72 h; for IC50: read-out: IC50; for IC90: read-out: IC90
Text: as §1, §2

[5] = test system: NB4 (acute promyelocytic leukemia, AML); assay: MTT leukemia cell growth inhibition, 72 h; assay type: cell-based, human; details: Homo sapiens, NB4, 72 h; for IC50: read-out: IC50; for IC90: read-out: IC90
Text: as §1, §2

[6] = test system: PANC-1 (pancreatic cancer); assay: MTT solid tumor cell growth inhibition, 72 h; assay type: cell-based, human; details: Homo sapiens, PANC-1, 72 h; for IC50: read-out: IC50; for IC90: read-out: IC90
Description: (§3) Human solid tumor cell lines: Hep-2 ([…]), A549 (human lung cancer), CaES-17 (esophageal cancer cell), PC-3 (prostate cancer), CNE (nasopharyngeal carcinoma cell), and SK-OV-3 (ovarian cancer cell), all of which are purchased from China Center For Type Culture Collection; RKO (human colon adenocarcinoma cell), MGC 803 (human gastric cancer cell), MG63 (osteosarcoma) and U87 MG (malignant glioma cell), all of which are purchased from Fuxiang Bio-tech Co. Ltd., Shanghai, China; PANC-1 (pancreatic cancer), Huh7 (human liver cancer cell), Becap37 (human breast cancer cell), and Hela (human cervical cancer cell), all of which are donated by Cancer Research Institute of Zhejiang University, China.
(§4) Obtaining 4000 well-growing human solid tumor cells and inoculating them into wells of a 96-well cell culture plate. The culture medium is DMEM High Glucose cell culture medium containing 10% fetal bovine serum. The plate is placed in a carbon dioxide cell incubator (5% CO2) at 37° C. and incubating for 24 hours. After adding the homoharringtonine derivatives of different concentration and mixing uniformly, the plate is placed in a carbon dioxide cell incubator (5% CO2) at 37° C. and incubating for 72 hours. Then the viable cell concentration is determined by the MTT method and the cell viability (%) after drug treatment is calculated. In this experiment, the cell viability of control group (not treated with any compound) is set as 100%.

MG63 (osteosarcoma) = assay: MTT solid tumor cell growth inhibition, 72 h; assay type: cell-based, human; details: Homo sapiens, MG 63, 72 h; for IC50: read-out: IC50; for IC90: read-out: IC90
Description: as §3, §4

[7] = test system: U87 MG (malignant glioma cell); assay: MTT solid tumor cell growth inhibition, 72 h; assay type: cell-based, human; details: Homo sapiens, U-87 MG
Description: as §3, §4

[8] = test system: RPMI8226 (multiple myeloma); assay: MTT multiple myeloma cell growth inhibition, 72 h; assay type: cell-based, human; details: Homo sapiens, RPMI-8226, RPMI8226, 72 h; for IC50: read-out: IC50; for IC90: read-out: IC90
Description: Multiple myeloma and lymphoma cell lines: RPMI8226 (multiple myeloma), purchased from Fuxiang Bio-tech Co. Ltd., Shanghai, China.
as §2, with “method.” for “method. In this experiment, the cell viability in control group (not treated with any compound) is set as 100%.”

[9] = test system: Becap37 (human breast cancer cell); assay: MTT solid tumor cell growth inhibition, 72 h; assay type: cell-based; details: Homo sapiens, Becap37, 72 h; for IC50: read-out: IC50; for IC90: read-out: IC90
Description: as §3, §4

A549 (human lung cancer) = assay: MTT solid tumor cell growth inhibition, 72 h; assay type: cell-based; details: Homo sapiens, A549, 72 h; for IC50: read-out: IC50; for IC90: read-out: IC90
Description: as §3, §4

[10] = test system: RKO (human colon adenocarcinoma cell); assay: MTT solid tumor cell growth inhibition, 72 h; assay type: cell-based; details: Homo sapiens; for IC50: read-out: IC50; for IC90: read-out: IC90
Description: as §3, §4

[11] = test system: MGC 803 (human gastric cancer cell); assay: MTT solid tumor cell growth inhibition, 72 h; assay type: cell-based; details: Homo sapiens, MGC 803, 72 h; for IC50: read-out: IC50; for IC90: read-out: IC90
Description: as §3, §4

[12] = test system: Huh7 (human liver cancer cell); assay: MTT solid tumor cell growth inhibition, 72 h; assay type: cell-based; details: Homo sapiens, Huh-7, Huh7, 72 h; for IC50: read-out: IC50; for IC90: read-out: IC90
Description: as §3, §4

SMILES | IC50 [1] [µg/mL] | IC90 [1] [µg/mL] | IC50 [2] [µg/mL] | IC90 [2] [µg/mL] | IC50 [3] [µg/mL] | IC90 [3] [µg/mL] | IC50 [4] [µg/mL] | IC90 [4] [µg/mL] | IC50 [5] [µg/mL] | IC90 [5] [µg/mL] | IC50 [6] [µg/mL] | IC90 [6] [µg/mL] | IC50 (MG63 (osteosarcoma)) [µg/mL] | IC90 (MG63 (osteosarcoma)) [µg/mL] | IC50 [8] [µg/mL] | IC90 [8] [µg/mL] | IC50 [9] [µg/mL] | IC90 [9] [µg/mL] | IC50 (A549 (human lung cancer)) [µg/mL] | IC90 (A549 (human lung cancer)) [µg/mL] | also measured
COC1=C[C@]23CCCN2CCc2cc4c(cc2[C@@H]3[C@@H]1OC(=O)[C@@](O)(CCCC(C)(C)O)CC(=O)NCc1cccs1)OCO4 [BS-HH-055] | 1.58 (≈ 2.52 µM) | 8 (≈ 12.8 µM) | 4 (≈ 6.38 µM) | 10.6 (≈ 17 µM) | 6.24 (≈ 9.96 µM) | 16 (≈ 25.5 µM) | 1.3 (≈ 2.07 µM) | 6.68 (≈ 10.7 µM) | 2.38 (≈ 3.8 µM) | 7.61 (≈ 12.1 µM) | 8 (≈ 12.8 µM) | > 16 | 3.83 (≈ 6.11 µM) | 16 (≈ 25.5 µM) | 2.1 (≈ 3.35 µM) | 16 (≈ 25.5 µM) | 5.9 (≈ 9.41 µM) | > 16 | 11.2 (≈ 17.9 µM) | > 16 | IC50 ([7]; read-out: IC50): 6.54 µg/mL (≈ 10.4 µM); IC90 ([7]; read-out: IC90): > 16 µg/mL; IC50 [10]: 2.75 µg/mL (≈ 4.39 µM); IC90 [10]: 6.97 µg/mL (≈ 11.1 µM); IC50 [11]: 6.06 µg/mL (≈ 9.67 µM); IC90 [11]: 19 µg/mL (≈ 30.3 µM); IC50 [12]: 4.83 µg/mL (≈ 7.71 µM); IC90 [12]: > 16 µg/mL
COC1=C[C@]23CCCN2CCc2cc4c(cc2[C@@H]3[C@@H]1OC(=O)[C@@](O)(CCCC(C)(C)O)CC(=O)N1CCSCC1)OCO4 [BS-HH-014] | 2 (≈ 3.24 µM) | > 16 | 8.25 (≈ 13.4 µM) | > 16 | > 16 | > 16 | 1.33 (≈ 2.16 µM) | 8.61 (≈ 14 µM) | 1.29 (≈ 2.09 µM) | 3.7 (≈ 6 µM) | 8 (≈ 13 µM) | > 16 | 6.24 (≈ 10.1 µM) | > 16 | 2.43 (≈ 3.94 µM) | 16 (≈ 25.9 µM) | 6.89 (≈ 11.2 µM) | > 16 | 9.79 (≈ 15.9 µM) | > 16 | IC50 [10]: 1.25 µg/mL (≈ 2.03 µM); IC90 [10]: 5.36 µg/mL (≈ 8.69 µM); IC50 [11]: 2.92 µg/mL (≈ 4.73 µM); IC90 [11]: 15.5 µg/mL (≈ 25.1 µM); IC50 [12]: 4 µg/mL (≈ 6.49 µM); IC90 [12]: > 16 µg/mL
COC1=C[C@]23CCCN2CCc2cc4c(cc2[C@@H]3[C@@H]1OC(=O)[C@@](O)(CCCC(C)(C)O)CC(=O)N1CCN(CCO)CC1)OCO4 [BS-HH-020] | 15.1 (≈ 23.5 µM) | > 16 | > 16 | > 16 | > 16 | > 16 | > 16 | > 16 | 7.46 (≈ 11.6 µM) | 15.8 (≈ 24.5 µM) | > 16 | > 16 | 14.1 (≈ 22 µM) | > 16 | 16 (≈ 24.9 µM) | > 16 | > 16 | > 16 | > 16 | > 16 | IC50 [10]: 8.38 µg/mL (≈ 13 µM); IC90 [10]: > 16 µg/mL; IC50 [11]: 7.5 µg/mL (≈ 11.6 µM); IC90 [11]: > 16 µg/mL; IC50 [12]: > 16 µg/mL; IC90 [12]: > 16 µg/mL
COC1=C[C@]23CCCN2CCc2cc4c(cc2[C@@H]3[C@@H]1OC(=O)[C@@](O)(CCCC(C)(C)O)CC(=O)N1CCCC(O)C1)OCO4 (stereo partly shown) [BS-HH-025] | > 16 | > 16 | > 16 | > 16 | > 16 | > 16 | > 16 | > 16 | 8.31 (≈ 13.5 µM) | > 16 | > 16 | > 16 | > 16 | > 16 | > 16 | > 16 | > 16 | > 16 | > 16 | > 16 | IC50 [10]: 15.3 µg/mL (≈ 25 µM); IC90 [10]: > 16 µg/mL; IC50 [11]: > 16 µg/mL; IC90 [11]: > 16 µg/mL; IC50 [12]: > 16 µg/mL; IC90 [12]: > 16 µg/mL
